Reference: patent US6743785B2, “Agents and methods for the treatment of proliferative diseases” (Eli Lilly and Company, priority 1999, dated 2004)

Experiments:
[1] = target: T1, cyclin D1-cdk4 (Homo sapiens, UniProt P11802); test: Assay of Cyclin D1-cdk4 kinase activity with the ING peptide as substrate; format: biochemical; details: 200 uM ING peptide, 300 uM ATP, 60 minutes, room temperature
Protocol: Assay of Cyclin D1-cdk4 kinase activity with the ING Peptide as Substrate
The cyclin D1-cdk4 kinase activity of a compound was assayed by preparing a 100 ul reaction at the following concentrations: 35 mM Hepes pH 7.0, 10 mM MgCl2, 300 uM ATP, 200 uM ING peptide, 1.0 uCi of γ-^33P-ATP, 4.34 ug of cyclin D-cdk4 enzyme, 4% DMSO, and various concentrations of inhibitor. The reaction was incubated at room temperature (about 74° F.) for 60 minutes, and then terminated by the addition of 100 ul of 10% phosphoric acid. Next, the reaction was filtered through a Millipore Multiscreen-PH Plate—Catalog number MAPH NOB 10, and the plate was washed 2 times with 320 ul each of 0.5% phosphoric acid, followed by the addition of 100 ul of scintillation fluid and quantitation on a Packard Instruments, Top Count, scintillation counter.

[2] = test system: HCT-116 or NCI H460 cells; test: Cell growth inhibition assay (MTT); format: cell-based; details: 72 h drug exposure
Protocol: Cell Growth Inhibition Assay The MTT assay was used to measure growth inhibitory activity (Schultz, R. M., et. al. Oncology Res. 5, 223-228, 1993). […] Basically, 1000 HCT-116 or NCI H460 cells were added per well to 96-well flat-bottom plates in 100-ul RPMI 1640 medium containing 10% dialyzed fetal bovine serum. The plates were incubated for 24 h prior to addition of test compounds. A stock solution (10 mM) was prepared in DMSO and serially diluted in medium. Compound dilutions were added to triplicate wells, and the plates were incubated for 72 hours.

[3] = test system: HCT-116 and NCI H460 cell lines; test: Cell cycle analysis using flow cytometry; format: cell-based; details: compound at 1x IC50 and 3x IC50, 24 hours, DNA histogram analysis
Protocol: Cell Cycle Analysis Using Flow Cytometry
The HCT-116 and NCI H460 cell lines were seeded in 75 cm^2 flasks at 5×10^5 cells/25 ml RPMI 1640 medium containing 10% dialyzed fetal bovine serum. They were incubated for 24 hours. […] The cells were subsequently harvested and the protocol (Robinson, J. P. and Darzynkiewicz, Z. Current Protocols in Cytometry. 1997) for staining was followed. DNA histogram analysis was performed using ModFit LT(Verity House).

[4] = test system: Ser-780 pRb phosphorylation in HCT116 cells; test: Inhibition of Rb phosphorylation assay; format: cell-based, Human; details: 1x, 2x and 3x IC50, 24 hours, immunoblot
Protocol: Inhibition of Rb Phosphorylation Assay
Human HCT116 colon carcinoma cell line was purchased from American Tissue Culture Collection (Rockville, Md.) and maintained as monolayer in RPMI-1640 with L-Glutamine and 25 mM HEPES supplemented with 10% fetal bovine serum in a 37° C. incubator with a 10% CO2 atmosphere. The detection of mycoplasm in cultured cells was performed using Mycoplasma Rapid Detection System (TaKaRa Shuzo Co. Ltd., Shiga, Japan) every 2-3 months and the cells were found consistently negative throughout these experiments. The Rb phosphorylation assay was done be plating 4×10^5 cells/well in 6-well plates. […] At the end of the incubation period the mediumj was removed and the cells were washed twice with cold PBS containing 1 mM sodium orthovanadate (Na3VO4). […] Protein concentration was determined by the Bio-Rad DC protein assay (Bio-Rad, Hercules, Calif.). […] Proteins were detected by capturing image of the membrane using Quantity One Software on a Fluor-S multi-Imager (Bio-Rad, Hercules, Calif.) in a linear range. Specific bands were quantified using Quantity One Software. […] Results are expressed as a percentage inhibition of Ser-780 pRb phosphorylation in drug treated cells versus control DMSO treated cells.

[5] = test system: protein kinase C; details: cited from earlier work
[6] = test system: protein kinase A; details: cited from earlier work
[7] = target: T1, cyclin D1-cdk4; test: Assay of Cyclin D1-cdk4 kinase activity with the Rb21 protein as substrate; format: biochemical; details: 5 ug Rb21 protein, 30 uM ATP, 60 minutes, room temperature; read-out: Kinase Activity with Rb2l
Protocol: Assay of Cyclin D1-cdk4 Kinase Activity with the Rb21 Protein as Substrate
The cyclin D1-cdk4 kinase activity of a compound was assayed by preparing a 100 ul reaction at the following concentrations: 20 mM Hepes pH 7.0, 10 mM MgCl2, 30 uM ATP, 5 ug of Rb21 protein (Santa Cruz Biotech, Catalog # sc-4112), 1.0 uCi of γ-^33P-ATP, 1.09 ug of cyclin D-cdk4 enzyme, 4% DMSO, and various concentrations of inhibitor. The reaction was incubated at room temperature (about 74° F.) for 60 minutes, and then terminated by the addition of 100 ul of 25% trichloroacetic acid. Next, the reaction was filtered through a Millipore Multiscreen-FC Plate—Catalog number MAFC NOB 10, and the plate was washed 2 times with 320 ul each of 10% trichloroacetic acid, followed by the addition of 100 ul of scintillation fluid and quantitation on a Packard Instruments, Top Count, scintillation counter.

T1 sequence (P11802 whole entry): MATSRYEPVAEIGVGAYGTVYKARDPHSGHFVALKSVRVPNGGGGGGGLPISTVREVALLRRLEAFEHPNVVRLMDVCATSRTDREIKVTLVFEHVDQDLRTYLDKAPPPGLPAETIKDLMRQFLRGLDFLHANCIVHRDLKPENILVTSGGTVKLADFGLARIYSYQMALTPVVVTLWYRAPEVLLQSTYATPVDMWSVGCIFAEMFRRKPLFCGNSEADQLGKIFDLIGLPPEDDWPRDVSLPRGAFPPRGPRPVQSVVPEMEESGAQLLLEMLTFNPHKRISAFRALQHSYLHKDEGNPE
T1 sequence (P24385 whole entry partner): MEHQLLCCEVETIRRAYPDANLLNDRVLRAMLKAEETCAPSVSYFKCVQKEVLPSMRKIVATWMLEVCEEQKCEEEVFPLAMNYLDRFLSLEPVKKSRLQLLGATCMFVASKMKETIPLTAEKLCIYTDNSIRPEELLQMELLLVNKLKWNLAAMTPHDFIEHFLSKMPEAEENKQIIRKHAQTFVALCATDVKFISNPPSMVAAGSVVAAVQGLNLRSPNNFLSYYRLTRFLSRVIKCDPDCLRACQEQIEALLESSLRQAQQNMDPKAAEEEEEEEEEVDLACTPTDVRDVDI

Structure (SMILES) | IC50 [1] [nM] | also measured
CC1(C)Cc2cccc3c4c5c(c6c7cccc8c7n(c6c4n(c23)C1)CCNC8)C(=O)NC5=O | 51 | –
CC1(C)Cc2cccc3c(C4=C(c5cn6c7c(cccc57)CNCC6)C(=O)NC4=O)cn(c23)C1 | 621 | –
CC1(C)CCn2cc(C3=C(c4cn5c6c(cccc46)CNCC5)C(=O)NC3=O)c3cccc1c32 | 537 | –
CC1(C)CCc2cccc3c(C4=C(c5cn6c7c(cccc57)CNCC6)C(=O)NC4=O)cn1c23 | 349 | –
Cl.O=C1NC(=O)c2c1c1c3cccc4c3n(c1c1c2c2cccc3c2n1CCNC3)CCC4 [Example 5] | – | cell growth inhibition [2]: inhibit cell growth; cell cycle arrest [3]: arrest cells in the G1 phase of the cell cycle; inhibition of Ser-780 pRb phosphorylation [4]: inhibit Rb (retinoblastoma protein) phosphorylation
CN1CC[C@H](c2c(O)cc(O)c3c(=O)cc(-c4ccccc4Cl)oc23)[C@H](O)C1 [Flavopiridol] | – | concentration at which protein kinase C is inhibited [5]: ≥ 10 μM/L; concentration at which protein kinase A is inhibited [6]: ≥ 10 μM/L
O=C1NC(=O)c2c1c1c3cccc4c3n(c1c1c2c2cccc3c2n1CCNC3)CCC4 [drawing 40] | 35.4 | –
O=C1NC(=O)c2c1c1c3cccc4c3n(c1c1c2c2cccc3c2n1CCCNC3)CCC4 [drawing 48] | – | IC50 [7]: 336 nM
O=C1NC(=O)c2c1c1c3cccc4c3n(c1c1c2c2cccc3c2n1CCNC3)CCC4 [drawing 49] | – | IC50 [7]: 5.8 nM
O=C1NC(=O)C(c2cn3c4c(cccc24)NCCC3)=C1c1cn2c3c(cccc13)CCC2 [drawing 50] | – | IC50 [7]: 196 nM

More lines, main results first:

IC50 [1] [nM] | Structure (SMILES) | also measured
413 | CC1(C)CCn2c3c1cc(F)cc3c1c3c(c4c5cccc6c5n(c4c12)CCNC6)C(=O)NC3=O | –
186 | CC1(C)CCn2cc(C3=C(c4cn5c6c(cccc46)CNCC5)C(=O)NC3=O)c3cc(F)cc1c32 | –
605 | O=C1NC(=O)c2c1c1c3cccc4c3n(c1c1c2c2cccc3c2n1CCCNC3)CCC4 [drawing 39] | –
143 | O=C1NC(=O)C(c2cn3c4c(cccc24)NCCC3)=C1c1cn2c3c(cccc13)CCC2 [drawing 43] | –
